The values that follow come from US10294202B2, “Pyrrolidinones as herbicides” (FMC Corporation, priority 2013, dated 2019).

For one assay, the system named is barnyardgrass. Kind of assay: Test A pre-/postemergence herbicide test. Format: in vivo, Echinochloa crus-galli. The settings on record: for pest or weed control at 1000 g/ha: Echinochloa crus-galli, 240 h, read-out: Plant response rating, Barnyardgrass. The text has this:
(§1) Seeds of plant species selected from bamyardgrass (Echinochloa crus-galli), kochia (Kochia scoparia), ragweed (common ragweed, Ambrosia elatior), ryegrass, Italian (Italian ryegrass, Lolium multiflorum), crabgrass, large (large crabgrass Digitaria sanguinalis), giant foxtail (Setaria faberii), morningglory (Ipomoea spp.), pigweed (Amaranthus retroflexus), velvetleaf (Abutilon theophrasti), wheat (Triticum aestivum), and corn (Zea mays) were planted into a blend of loam soil and sand and treated preemergence with a directed soil spray using test chemicals formulated in a non-phytotoxic solvent mixture which included a surfactant. At the same time, plants selected from these crop and weed species and also blackgrass (Alopecurus myosuroides), and galium (catchweed bedstraw, Galium aparine) were planted in pots containing the same blend of loam soil and sand and treated with postemergence applications of test chemicals formulated in the same manner. Plants ranged in height from 2 to 10 cm and were in the one- to two-leaf stage for the postemergence treatment. Treated plants and untreated controls were maintained in a greenhouse for approximately 10 days, after which time all treated plants were compared to untreated controls and visually evaluated for injury. Plant response ratings, summarized in Table A, are based on a 0 to 100 scale where 0 is no effect and 100 is complete control. A dash (-) response means no test result.

A further assay has as its system kochia. The assay is described as follows: Test A pre-/postemergence herbicide test. The format is in vivo, Kochia scoparia. Conditions: for Plant response rating, Kochia: 0 to 100 scale.
Excerpt: as §1

Another assay deals with ragweed. The assay is described as follows: Test A pre-/postemergence herbicide test. Format: in vivo, Ambrosia elatior. The settings on record: for Plant response rating, Ragweed: 0 to 100 scale.
Excerpt: as §1

The test system of another assay is ryegrass, Italian. The assay is described as follows: Test A pre-/postemergence herbicide test. Format: in vivo, Lolium multiflorum. Conditions: for Plant response rating, Ryegrass, Italian: 0 to 100 scale.
Excerpt: as §1

A further assay has as its system giant foxtail. Kind of assay: Test A pre-/postemergence herbicide test. Conditions: for pest or weed control at 1000 g/ha: Setaria faberi, 240 h, read-out: Plant response rating, Foxtail, Giant. The format is in vivo, Setaria faberii.
Excerpt: as §1

A further assay has as its system pigweed. The assay is described as follows: Test A pre-/postemergence herbicide test. The settings on record: for pest or weed control at 1000 g/ha: Amaranthus retroflexus, 240 h, read-out: Plant response rating, Pigweed. Format: in vivo, Amaranthus retroflexus.
Excerpt: as §1

The next assay has as its system wheat. Kind of assay: Test A pre-/postemergence herbicide test. Conditions: for plant injury at 1000 g/ha: Triticum aestivum, 240 h, read-out: Plant response rating, Wheat. Format: in vivo, Triticum aestivum.
Excerpt: as §1

The subject of the next assay is corn. The assay is described as follows: Test A pre-/postemergence herbicide test. The format is in vivo, Zea mays. The settings on record: for Corn plant response rating (crop injury, 0 = no effect, 100 = complete kill) at 1000 g/ha: Zea mays, 240 h. A digest of the protocol: (§2)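 Scoring was visual, relative to untreated controls, on a 0–100 scale after about 10 greenhouse days. Preemergence treatment used a directed soil spray over seeded loam/sand; postemergence treatment targeted one- to two-leaf plants of 2–10 cm.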

In another assay the test system is blackgrass. The assay is described as follows: Test A postemergence herbicide test. The format is in vivo, Alopecurus myosuroides. The text has this: (§3) At the same time, plants selected from these crop and weed species and also blackgrass (Alopecurus myosuroides), and galium (catchweed bedstraw, Galium aparine) were planted in pots containing the same blend of loam soil and sand and treated with postemergence applications of test chemicals formulated in the same manner. Plants ranged in height from 2 to 10 cm and were in the one- to two-leaf stage for the postemergence treatment. Treated plants and untreated controls were maintained in a greenhouse for approximately 10 days, after which time all treated plants were compared to untreated controls and visually evaluated for injury. Plant response ratings, summarized in Table A, are based on a 0 to 100 scale where 0 is no effect and 100 is complete control. A dash (-) response means no test result.

For a further assay, the system named is galium. Kind of assay: Test A postemergence herbicide test. The format is in vivo, Galium aparine.
Excerpt: as §3

For the next assay, the system named is crabgrass, large. The assay is described as follows: Test A pre-/postemergence herbicide test. Format: in vivo, Digitaria sanguinalis. Conditions: 1000 g ai/ha; for pest or weed control at 1000 g/ha: Digitaria sanguinalis, 240 h, read-out: Plant response rating, Crabgrass, Large.
Excerpt: as §1

The test system of another assay is morningglory. The assay is described as follows: Test A pre-/postemergence herbicide test. The settings on record: 1000 g ai/ha; for pest or weed control at 1000 g/ha: Ipomoea, 240 h, read-out: Plant response rating, Morningglory. Format: in vivo, Ipomoea spp.
Excerpt: as §1

In a further assay the test system is velvetleaf. Kind of assay: Test A pre-/postemergence herbicide test. The format is in vivo, Abutilon theophrasti. Conditions: 1000 g ai/ha; for pest or weed control at 1000 g/ha: Abutilon theophrasti, 240 h, read-out: Plant response rating, Velvetleaf. A digest of the protocol:
as §2

[1] abbreviates: 125 g ai/ha, visual rating, 0 to 100 scale, 0 no effect, 100 complete control, approximately 10 days, preemergence.
Setting [2] is: Postemergence, 125 g ai/ha, 0 to 100 scale, 0 is no effect, 100 is complete control.
The mark [3] stands for this setting: 125 g ai/ha, visual rating, 0 no effect, 100 complete control, approximately 10 days, preemergence.
Where [4] appears, read: Postemergence, 125 g ai/ha, 0 is no effect, 100 is complete control.
Where [5] appears, read: preemergence, 500 g ai/ha, 0 is no effect and 100 is complete control.
The mark [6] stands for this setting: 125 g ai/ha, 0 to 100 scale, 0 is no effect, 100 is complete control.
Setting [7] is: Postemergence, 1000 g ai/ha, 0 to 100 scale (0 no effect, 100 complete control).
The mark [8] stands for this setting: preemergence, 1000 g ai/ha, 0 to 100 scale (0 no effect, 100 complete control).
Where [9] appears, read: Postemergence, 0 to 100 scale (0 no effect, 100 complete control).
The mark [10] stands for this setting: preemergence, 1000 g ai/ha, 0 to 100 scale.
The mark [11] stands for this setting: post-emergence, Postemergence, 1000 g ai/ha, 0 to 100 scale (0 no effect, 100 complete control).
Setting [12] is: pre-emergence, Preemergence, 1000 g ai/ha, visual rating on 0 to 100 scale (0 no effect, 100 complete control), approx. 10 days.
[13] abbreviates: post-emergence, Postemergence, 0 to 100 scale (0 no effect, 100 complete control).
[14] abbreviates: pre-emergence, Preemergence, visual rating on 0 to 100 scale (0 no effect, 100 complete control), approx. 10 days.

Read-outs that look alike come from different tables or passages of the source.

Consider `O=C1NCC(c2cc(F)cc(F)c2)C1C(=O)Nc1cccc(F)c1F` (racemic) [Compound 157], for which the “Plant response rating, Barnyardgrass” value in the assay with barnyardgrass (setting [1]) was 90; in the assay on barnyardgrass (setting [2]) it was 70; with barnyardgrass (preemergence, 500 g ai/ha, 0 to 100 scale (0 no effect, 100 complete control)) it was 90. For the same compound, the “Barnyardgrass plant response rating (0 to 100 scale, 0 is no effect, 100 is complete control)” value with barnyardgrass (Postemergence, 500 g ai/ha) is on record as 80. Also, the “Plant response rating, Kochia” value in the assay on kochia (setting [3]) is 50; with kochia (setting [4]) it was 20; in the assay on kochia (setting [5]) it was 70. For the same compound, in the assay on kochia (Postemergence, 500 g ai/ha), the “Kochia plant response rating (0 to 100 scale, 0 is no effect, 100 is complete control)” value came to 30. Besides, the entries for the “Plant response rating, Ragweed” value in the assay with ragweed (setting [3]), with ragweed (setting [4]) and with ragweed (setting [5]) were 30, 20 and 50, respectively. In addition, the “Ragweed plant response rating (0 to 100 scale, 0 is no effect, 100 is complete control)” value in the assay with ragweed (Postemergence, 500 g ai/ha) is recorded as 40. Besides, the “Plant response rating, Ryegrass, Italian” value is given as 30 with ryegrass, Italian (setting [3]); 30 with ryegrass, Italian (setting [4]); 60 with ryegrass, Italian (setting [5]). The “Ryegrass, Italian plant response rating (0 to 100 scale, 0 is no effect, 100 is complete control)” value in the assay on ryegrass, Italian (Postemergence, 500 g ai/ha) was 30. Moreover, the “Plant response rating, Foxtail, Giant” value is 90 in the assay with giant foxtail (setting [1]); 80 in the assay with giant foxtail (setting [2]); 90 with giant foxtail (preemergence, 500 g ai/ha, 0 to 100 scale). For the same compound, the “Foxtail, Giant plant response rating (0 to 100 scale, 0 is no effect, 100 is complete control)” value with giant foxtail (Postemergence, 500 g ai/ha) is on record as 80. Also, the “Plant response rating, Pigweed” value amounted to 0 in the assay with pigweed (setting [1]); 0 in the assay on pigweed (setting [2]); 50 in the assay with pigweed (preemergence, 500 g ai/ha, 0 to 100 scale, 0 is no effect and 100 is complete control). Besides, in the assay on pigweed (Postemergence, 500 g ai/ha), the “Pigweed plant response rating (0 to 100 scale, 0 is no effect, 100 is complete control)” value was 30. Further, the “Plant response rating, Wheat” value in the assay on wheat (setting [2]) stood at 40. The “Wheat plant response rating (0 to 100 scale, 0 is no effect, 100 is complete control)” value in the assay with wheat (Postemergence, 500 g ai/ha) was 70. In addition, the “Plant response rating, Corn” value in the assay with corn (setting [2]) is listed as 50. In the assay with corn (Postemergence, 500 g ai/ha), the “Corn plant response rating (0 to 100 scale, 0 is no effect, 100 is complete control)” value is reported as 80. The “Plant response rating, Blackgrass” value with blackgrass (setting [6]) stood at 30. Moreover, the “Blackgrass plant response rating (0 to 100 scale, 0 is no effect, 100 is complete control)” value in the assay on blackgrass (500 g ai/ha) was determined as 30. In addition, in the assay with galium (setting [6]), the “Plant response rating, Galium” value came to 40. In addition, the “Galium plant response rating (0 to 100 scale, 0 is no effect, 100 is complete control)” value with galium (500 g ai/ha) was found to be 40.
As to `Cn1ccc(C2CNC(=O)C2C(=O)Nc2cccc(F)c2F)n1` (racemic) [Compound 192], the “Plant response rating, Barnyardgrass” value in the assay on barnyardgrass (setting [7]) and in the assay on barnyardgrass (setting [8]) was 0 throughout. Further, the “Plant response rating, Crabgrass, Large” value in the assay with crabgrass, large (setting [9]) was 0; in the assay with crabgrass, large (preemergence, 0 to 100 scale), 0. Also, the “Plant response rating, Foxtail, Giant” value in the assay with giant foxtail (setting [7]) and in the assay with giant foxtail (setting [10]) was 0 in each case. In addition, the “Plant response rating, Morningglory” value in the assay on morningglory (setting [9]) is given as 0; in the assay with morningglory (preemergence, 0 to 100 scale) it was 0. In addition, the “Plant response rating, Pigweed” value with pigweed (setting [7]) and with pigweed (setting [10]) was 0 throughout. For the same compound, the “Plant response rating, Velvetleaf” value is listed as 0 in the assay on velvetleaf (setting [9]) and 0 in the assay with velvetleaf (preemergence, 0 to 100 scale). Moreover, the “Plant response rating, Wheat” value in the assay on wheat (setting [7]) and in the assay on wheat (setting [10]) was 0 throughout. The “Plant response rating, Corn” value in the assay with corn (setting [7]) and in the assay with corn (setting [10]) was 0 in each case.
For `Cn1ccc(C2CNC(=O)C2C(=O)Nc2ccccc2C(F)(F)F)n1` (racemic) [Compound 191], the “Plant response rating, Barnyardgrass” value with barnyardgrass (setting [7]) and with barnyardgrass (setting [8]) was 0 in each case. Besides, the “Plant response rating, Crabgrass, Large” value is listed as 0 in the assay on crabgrass, large (setting [9]) and 0 in the assay with crabgrass, large (preemergence, 0 to 100 scale). The “Plant response rating, Foxtail, Giant” value in the assay with giant foxtail (setting [7]) and in the assay on giant foxtail (setting [10]) was 0 in each case. Besides, the “Plant response rating, Morningglory” value in the assay on morningglory (setting [9]) was 0; in the assay with morningglory (preemergence, 0 to 100 scale), 0. For the same compound, the “Plant response rating, Pigweed” value in the assay with pigweed (setting [7]) and in the assay on pigweed (setting [10]) was 0 each time. In addition, the “Plant response rating, Velvetleaf” value in the assay with velvetleaf (setting [9]) was determined as 0; with velvetleaf (preemergence, 0 to 100 scale), 0. The “Plant response rating, Wheat” value in the assay with wheat (setting [7]) and in the assay on wheat (setting [10]) was 0 in each case. The “Plant response rating, Corn” value in the assay on corn (setting [7]) and with corn (setting [10]) was 0 each time.
For the compound `O=C(Nc1ccccc1F)C1C(=O)N(O)CC1c1ccc(F)c(F)c1` (centres unmarked) [Compound 44, 4-(3,4-difluorophenyl)-N-(2-fluorophenyl)-1-hydroxy-2-oxo-3-pyrrolidinecarboxamide], the pest or weed control at 1000 g/ha with barnyardgrass (setting [11]) was 60%; with barnyardgrass (setting [12]), 40%; in the assay with crabgrass, large (setting [13]) it was 50%; with crabgrass, large (setting [14]), 90%; with giant foxtail (setting [11]), 30%; in the assay with giant foxtail (setting [12]), 70%. Moreover, the pest or weed control at 1000 g/ha with morningglory (setting [13]), in the assay on morningglory (setting [14]), in the assay on pigweed (setting [11]), in the assay on pigweed (setting [12]), with velvetleaf (setting [13]) and with velvetleaf (setting [14]) was 0% throughout. In addition, the plant injury at 1000 g/ha in the assay with wheat (setting [11]) and with wheat (setting [12]) was 0% each time. For the same compound, the Corn plant response rating (crop injury, 0 = no effect, 100 = complete kill) at 1000 g/ha with corn (setting [11]) and in the assay on corn (setting [12]) was 0% in each case.
